The target of the assay is Adenosine kinase (Homo sapiens, UniProt P55263). In words: Inhibition of human cytosolic AK.

Bounds are passed on as bounds.

Chain of Adenosine kinase (P55263 whole entry): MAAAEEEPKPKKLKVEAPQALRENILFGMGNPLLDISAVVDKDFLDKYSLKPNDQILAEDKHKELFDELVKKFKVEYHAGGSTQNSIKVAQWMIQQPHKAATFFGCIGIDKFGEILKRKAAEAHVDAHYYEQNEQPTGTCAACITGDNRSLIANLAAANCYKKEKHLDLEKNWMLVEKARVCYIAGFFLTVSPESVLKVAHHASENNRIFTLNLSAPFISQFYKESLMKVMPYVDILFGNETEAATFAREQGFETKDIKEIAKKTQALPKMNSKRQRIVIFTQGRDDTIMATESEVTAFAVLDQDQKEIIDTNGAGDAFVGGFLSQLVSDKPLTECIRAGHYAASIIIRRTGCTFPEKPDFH

A word on the IC50: it is the concentration that inhibits the measured activity by half. Read a low IC50 as higher potency. In turn, `Cc1nc(N)c(-c2ccccc2)c(C#Cc2ccc(N(C)C)cc2)n1` returned a 50% inhibitory concentration (IC50) above 1000 nM. Then `Nc1cc(C#Cc2ccc(N3CCOCC3)nc2)ncn1`, with 120 nM; and `CN(C)c1ccc(-c2c(N)ncnc2C#Cc2ccc(N3CCOCC3)nc2)cc1`, with 68 nM.

On to `CN(C)c1ccc(C#Cc2ncnc(N)c2-c2ccccc2)cc1`, for which the IC50 is 20 nM. Consider `Nc1ncnc(C#Cc2ccc(N3CCOCC3)nc2)c1CCCc1ccccc1`, for which the IC50 is 2.5 nM. Then `Nc1ncnc(C#Cc2ccc(N3CCOCC3)nc2)c1Cc1ccccc1`, with 40 nM; and `CN(C)c1ccc(C#Cc2ncnc(N)c2-c2ccc3c(c2)OCO3)cc1`, with 9 nM.
